# Values of other authors, collected in patent publication US11801302B2, “Formulations and uses thereof” (priority 2020, dated 2023).
# “Also recorded” adds a separate entry of the source.
# What was measured:
# bone = conditions: in vivo
# [1] = compared with other vitamin K homologs
# [2] = tested on: patients who respond with increased carboxylation of osteocalcin; conditions: subset of patients with increased carboxylation of osteocalcin
# cancer = conditions: in vitro and in vivo
# anxiety = conditions: in vivo
# diuresis = conditions: dose-dependent; only when animals were fluid overloaded, not euvolemic
# [3] = tested on: hyperactivity induced by MK-801; conditions: in vivo
# [4] = tested on: UV-induced hyperpigmentation of the skin; conditions: in vivo
# [5] = tested on: inflammatory markers PPARγ and TNFα; conditions: with emu oil; animal model of ulcerative colitis
# [6] = tested on: skin, prostate, breast, and ovarian cancer; conditions: preclinical models of skin
# [7] = tested on: central benzodiazepine receptor
# blood pressure = conditions: in some cases patients no longer needing antihypertensive medications
# [8] = tested on: anger, mitochondrial function; conditions: in vivo
# wound = conditions: setting of a wound
# [9] = tested on: cholesterol transport-related protein (NPC1L1); conditions: cell model
# HDL and LDL cholesterol = conditions: in vivo
# chronic plaque psoriasis = conditions: topical application
# [10] = tested on: atypical/precancerous stem cells; conditions: used separately or together
# normal mice = conditions: observed only at a dose of 30 mg/kg in normal mice
structure (smiles),measurement,setting,value
CC(C)=CCC/C(C)=C/CC/C(C)=C/CC/C(C)=C/CC/C(C)=C/CC/C(C)=C/CC/C(C)=C/CC1=C(C)C(=O)c2ccccc2C1=O [MK7],bone mineral density,bone,other vitamin K homologs. MK7 increases
same,bioavailability,[1],higher bioavailability
same,half-life,[1],longer half-life
CC(C)=CCC/C(C)=C/CC/C(C)=C/CC/C(C)=C/CC/C(C)=C/CC/C(C)=C/CC/C(C)=C/CC1=C(C)C(=O)c2ccccc2C1=O [Vitamin K2 (MK7)],"body weight, abdominal and visceral fat",[2],"reduced body weight, abdominal and visceral"
O=C(O)c1cc(O)c(O)c(O)c1 [Gallic Acid],inhibitory properties against cancer,cancer,Plant polyphenol with strong inhibitory
C=C(C)[C@H]1CC=C(C)CC1 [D-limonene],"production of IFN-γ, IL-2, TNF-α, IL-4 and IL-13 by CD3(+) CD4(+) T cells; IFN-γ, IL-2, and TNF-α by CD3(+) CD8(+) T cells",T lymphocytes,viability (PMID 23059811) by inhibiting
same,anxiolytic properties with flumazenil,anxiety,"is NOT reversed by flumazenil, indicating a"
same,diuretic effect,diuresis,more capable. D-limonene has a mild diuretic
O=c1c(O)c(-c2ccc(O)c(O)c2)oc2cc(O)cc(O)c12 [Quercetin],hyperactivity induced by NMDA receptor antagonist MK-801,[3],transmission and alleviates the hyperactivity
CC(C)=CCC/C(C)=C/CO [geraniol],kidney glycogen content,GLUT2 transporter; compared to diabetic control,release of glucose from the liver; also doubled
same,renal glucose output,GLUT2 transporter; compared to diabetic control,"kidney glycogen content, doubling renal glucose"
same,GLUT2 transporter,GLUT2 transporter; geraniol from Cymbopogon martinii,inhibition of GLUT2 transporter by geraniol
CCCCC/C=C\C/C=C\CCCCCCCC(=O)O [Linoleic acid],UV-induced hyperpigmentation of the skin,[4],shown to lighten UV-induced
CC1(C)[C@@H](O[C@H]2O[C@H](C(=O)O)[C@@H](O)[C@H](O)[C@H]2O[C@@H]2O[C@H](C(=O)O)[C@@H](O)[C@H](O)[C@H]2O)CC[C@]2(C)[C@H]3C(=O)C=C4[C@@H]5C[C@@](C)(C(=O)O)CC[C@]5(C)CC[C@@]4(C)[C@]3(C)CC[C@@H]12 [glycyrrhizin],anti-inflammatory effect by modulating PPARγ and TNFα,[5],synergizes with emu oil to exert a stronger anti-
O=c1cc(-c2ccc(O)cc2)oc2cc(O)cc(O)c12 [Apigenin],antitumor effect,[6],exerts an antitumor effect in preclinical models
same,anxiolytic and mild sedative effects when flumazenil is administered first,[7]; benzodiazepine antagonist flumazenil,"(PMID 7617761), an effect that is reversible"
same,effects as central benzodiazepine receptor ligand,[7]; in vivo,ligand with anxiolytic and slight sedative; also recorded: ligand with anxiolytic and mild sedative effects
CCCCCCCC/C=C\CCCCCCCC(=O)O [Oleic acid (OA)],blood pressure,blood pressure,21181463). OA has been shown to reduce blood
same,lipophilic penetration of skin cells,skin cells,Oleic acid (OA) enhances lipophilic penetration
same,pain and itch receptors,pain and itch receptors,directly inhibits pain and itch receptors (PMID
same,anger,[8],unexpectedly has been shown to decrease anger
same,thickness of the necrotic tissue layer in the wound,wound,"wound healing tissue mass, while decreasing"
same,expression of cholesterol transport-related protein (NPC1L1),[9],2235880). OA has been shown to decrease
CCCCCCCCCCCCCCCCCC(=O)O [Stearic acid],“bad” cholesterol LDL,HDL and LDL cholesterol,cholesterol HDL while reducing the “bad”
same,“good” cholesterol HDL,HDL and LDL cholesterol,10945745) and can increase the “good”
C=C(C)C1CCC(C)(O)C(O)C1 (stereo not drawn) [limonene-1-2-diol],"production of IFN-γ, IL-2, TNF-α, IL-4 and IL-13 by CD3(+) CD4(+) T cells; IFN-γ, IL-2, and TNF-α by CD3(+) CD8(+) T cells",T lymphocytes,viability (PMID 23059811) by inhibiting
C=C1/C(=C\C=C2/CCC[C@]3(C)[C@@H]([C@H](C)/C=C/[C@@H](O)C4CC4)CC[C@@H]23)C[C@@H](O)C[C@@H]1O [calcipotriene],chronic plaque psoriasis,chronic plaque psoriasis,topical application of calcipotriene improves
"COc1cc(/C=C/C(=O)CC(=O)/C=C/c2ccc(O)c(OC)c2)ccc1O [curcumin, diferuloylmethane]",number of atypical/precancerous stem cells,[10],reduced the number of atypical/precancerous stem cells
COc1cc(CCC(C)=O)ccc1O [zingerone],diuretic effect,normal mice,"Oil, zingerone exhibited a mild diuretic effect"
C=C(C)[C@@H]1CC=C(C(=O)O)CC1 [perillic acid],"production of IFN-γ, IL-2, TNF-α, IL-4 and IL-13 by CD3(+) CD4(+) T cells; IFN-γ, IL-2, and TNF-α by CD3(+) CD8(+) T cells",T lymphocytes,viability (PMID 23059811) by inhibiting
